Laboratory results published in article PMC4864329, “In vitro and in vivo efficacy, toxicity, bio-distribution and resistance selection of a novel antibacterial drug candidate” (Scientific Reports, 2016).
Converted amounts (≈) assume the structure as drawn. Read-outs that look alike come from different tables or passages of the source. Positions of bridges follow the written chain, without caps; N, C: chain ends. Non-standard residues stand in square brackets, D forms with d. Residues, ends and D or L forms follow the SMILES beside them. Chains are numbered I, II in the order given. βAla = NCCC(=O)O

Experiments:
human lymphocytes = conditions: positive control
Method: Gene toxicity was assessed by testing the potential of SET-M33L to induce micronuclei in human lymphocytes. Human lymphocytes in whole blood culture, stimulated to divide by addition of PHA 48 hours prior to treatment, were exposed to SET-M33L for 3 hours with and without exogenous metabolic activation (S9 mix), and for 20 hours without S9 mix.
Analysis of micronucleated cells was based on the criteria described by Fenech and Morley[37] and Fenech[38]. […] Human lymphocytes from informed donors were pooled and diluted with HML media (RPMI 1640, supplemented with 10% fetal calf serum, 0.2 IU/ml sodium heparin, 20 IU/ml penicillin, 20 μg/ml streptomycin and 2.0 mM L-glutamine). […] Cultures were established from the prepared (pooled) sample and dispensed as 5 ml aliquots (in sterile universal containers) so that each culture contained blood (0.4 ml), HML media (4.5 ml) and PHA solution (0.1 ml). The cultures were then incubated at 37 °C, and the cells were resuspended (twice daily) by gentle inversion.
Lymphocyte cultures were incubated for approximately 48 hours after stimulation with PHA, before addition of SET-M33L; controls were appropriately diluted with vehicle. S9 homogenate was present in appropriate cultures at a final concentration of 2% v/v. Before treatment, all cultures were centrifuged and resuspended in the required volume of fresh medium, taking treatment volume and S9 mix volume into account. SET-M33L preparations were added to cultures at 10% v/v. Cultures were incubated at 37 °C for 3 or 20 hours.
The cells were centrifuged and the medium replaced with fresh medium. Cytochalasin B, at a final concentration of 6 μg/ml, was then added to all cultures. The cultures were incubated for a further 17 hours until the scheduled harvest time.
The cells were harvested by centrifugation at 500 g for 5 minutes. […] The prepared slides were examined by fluorescence microscopy. The incidences of mononucleate, binucleate and polynucleate cells were assessed per culture per 1000 binucleate cells. […]

BALB/c mice = test: Acute toxicity in mice, single i.v. dose; format: in vivo, mouse
Method: As preliminary toxicity evaluation we first compared the acute toxicity of SET-M33L and SET-M33L-PEG with that of colistin. Animals (10 BALB/c mice/group) were injected i.v. with different amounts of SET-M33L, SET-M33L-PEG or colistin, in single dose, in the range 5–40 mg/kg (Fig. 4), and were monitored for 4 days after inoculation of the peptide. […] At 40 mg/Kg SET-M33L and SET-M33L-PEG produced similar toxicity profiles with strong signs of toxicity and 90–100% mortality after 96 hours. Colistin produced strong signs of toxicity already at 10 mg/Kg: 50% mortality immediately after inoculation and 70% mortality after 24 hours. Colistin induced sudden death in 100% of mice at 20 and 40 mg/Kg.
Mice were treated by a single i.v. administration of different amounts (40, 20, 10, 5 mg/Kg) of SET-M33L, SET-M33L-PEG or colistin sulfate (Sigma-Aldrich, C4461). Signs of toxicity were checked four times a day by visual inspection. A toxicity score was assigned for the following signs: wiry coat and poor motility = mild signs; very wiry coat, abundant lachrymation and poor motility even under stimulation = manifest signs. Animals were monitored for 4 days after inoculation of the peptide. Mice were weighed every day from arrival to the last day of the experiment. Moribund animals were killed humanely to avoid unnecessary distress.

[1] = system: K. pneumoniae strain KKBO-1; format: cell-based, Klebsiella pneumoniae; conditions: K. pneumoniae KKBO-1
Method: Tests were performed by plating cells on SET-M33L- or colistin-containing MHB.

[2] = system: Klebsiella pneumoniae clinical isolates; format: cell-based; conditions: clinical isolates
Method: Minimum inhibitory concentrations (MICs) of SET-M33L were determined against 76 clinical isolates of Pseudomonas aeruginosa and 73 clinical isolates of Klebsiella pneumoniae. The isolates were selected on the basis of their resistance phenotypes and major antibiotic resistance determinants, including resistance to colistin and carriage of carbapenemase-encoding genes (Table 1 and supplemental Tables S1 and S2).
MIC values were determined against a large collection of clinical isolates. Most isolates were collected during routine susceptibility testing procedures at the Clinical Microbiology Unit of Careggi University Hospital in Florence, while specific isolates were selected according to their phenotype or genotype (e.g. carriage of carbapenemase-encoding genes, inclusion in epidemic bacterial clones, resistance to colistin) from a collection of isolates already available at Department of Medical Biotechnologies, University of Siena. Detailed features of each strain, including relevant resistance phenotypes and genotypes were reported in supplemental Tables S1 and S2. MICs were determined in triplicate using a standard microdilution assay according to the guidelines of the Clinical and Laboratory Standards Institute[34]. SET-M33L was assayed using concentrations in the range 0.09–11.2 μM (0.5–64 μg/mL); testing was performed using a bacterial inoculum of 5 × 10^4 CFU/well prepared in cation-supplemented Mueller-Hinton broth (MHB) (Becton Dickinson, Franklin Lakes, NJ, USA) in a final volume of 100 μl. Results were recorded after 18–20 h of incubation at 35 °C.

`O=P1(N(CCCl)CCCl)NCCCO1` (stereo not shown) [CPA, Cyclophosphamide] was tested, and the “Mean of binucleate cells containing micronuclei per 1000 cells” value (“Mean … per 1000 cells” for short) (human lymphocytes; 3h + S9, 10 μg/ml) was 17.0 per 1000 cells.

With `CO[C@@]12[C@H](COC(N)=O)C3=C(C(=O)C(C)=C(N)C3=O)N1C[C@@H]1N[C@@H]12` [MMC, Mitomycin C] the “Mean … per 1000 cells” value (human lymphocytes; 3h − S9, 0.2 μg/ml) was 28.0 per 1000 cells and the “Mean … per 1000 cells” value (human lymphocytes; 20h − S9, 0.05 μg/ml) was 22.5 per 1000 cells.

In the case of `CC[C@H](C)[C@H](NC(=O)[C@H](CCCCN)NC(=O)[C@@H](N)CCCCN)C(=O)N[C@@H](CCCNC(=N)N)C(=O)N[C@H](C(=O)N[C@@H](CCCNC(=N)N)C(=O)N[C@@H](CC(C)C)C(=O)N[C@@H](CO)C(=O)N[C@@H](C)C(=O)NCCCC[C@H](NC(=O)[C@H](C)NC(=O)[C@H](CO)NC(=O)[C@H](CC(C)C)NC(=O)[C@H](CCCNC(=N)N)NC(=O)[C@@H](NC(=O)[C@H](CCCNC(=N)N)NC(=O)[C@@H](NC(=O)[C@H](CCCCN)NC(=O)[C@@H](N)CCCCN)[C@@H](C)CC)C(C)C)C(=O)NCCCC[C@H](NC(=O)[C@H](CCCCNC(=O)[C@H](C)NC(=O)[C@H](CO)NC(=O)[C@H](CC(C)C)NC(=O)[C@H](CCCNC(=N)N)NC(=O)[C@@H](NC(=O)[C@H](CCCNC(=N)N)NC(=O)[C@@H](NC(=O)[C@H](CCCCN)NC(=O)[C@@H](N)CCCCN)[C@@H](C)CC)C(C)C)NC(=O)[C@H](C)NC(=O)[C@H](CO)NC(=O)[C@H](CC(C)C)NC(=O)[C@H](CCCNC(=N)N)NC(=O)[C@@H](NC(=O)[C@H](CCCNC(=N)N)NC(=O)[C@@H](NC(=O)[C@H](CCCCN)NC(=O)[C@@H](N)CCCCN)[C@@H](C)CC)C(C)C)C(=O)NCCC(=O)O)C(C)C` [SET-M33L] (I: H-KKIRVRLSAKK[βAla]-OH / II: H-KKIRVRLSAK / III: H-KKIRVRLSA / IV: H-KKIRVRLSA; amide I:10-IV:C, I:11-II:C, II:10-III:C), the mortality (BALB/c mice; single i.v. dose 40 mg/Kg, after 96 hours) is reported as 90–100%, the “lethality and signs of toxicity” value (BALB/c mice; single i.v. dose up to 20 mg/kg, monitored 4 days, 10 BALB/c mice/group) is reported as “not lethal and no signs of toxicity were observed” and the MIC [1] is reported as 0.35 µM (≈ 1.64 µg/mL). The MIC [2] was > 64 µg/mL.
